Legend:
[1] = test system: FoxP3; experiment: FoxP3 induction in mouse DO11.10 (Rag2-/-) CD4+CD25- T cells; type: cell-based; conditions: for induction of FoxP3 in mouse T cells: irradiated splenocytes, OVA 323-339 peptide, IL-2 100 U/ml
Procedure: It was determined if ATRA could induce FoxP3 in mouse T cells. […] These CD4^+ CD25^− T cells were cultured in a T cell activation condition (irradiated splenocytes with […] of OVA 323-339 antigen peptide and 100 U/ml of IL-2) in the presence or absence of ATRA. […] Other retinoids such as AM-580 (a RARα agonist) and methoprene acid (a RXR agonist) were also tested.

[2] = test system: FoxP3; experiment: FoxP3 induction in activated neonatal human cord blood CD4+CD25- naive T cells (RT-PCR, flow cytometry); type: cell-based; conditions: very high concentration (20 μM), IL-2 + PHA, 6 days
[3] = test system: α4β7+ mucosal tissue homing FoxP3+ T cells; experiment: Intestinal FoxP3+ T cell numbers in mice fed food with or without vitamin A; type: in vivo, mouse; conditions: 6 weeks
Procedure: Regulation of mucosal FoxP3^+ cell numbers by vitamin A in vivo and in vitro. The in vivo effect of vitamin A on numbers of intestinal FoxP3^+ T cells was determined. Adult mice were fed with food with (control mice) or without vitamin A for 6 weeks, and then the numbers of FoxP3^+ T cells in small and large intestine, and mesenteric lymph nodes were determined by flow analysis (FIG. 11A).

[4] = test system: RARα; experiment: RT-PCR of RAR and RXR mRNA expression in CD4+CD25- T cells activated in ATRA; type: cell-based, human; conditions: ATRA 2 nM, IL-2 + PHA, 6 days; 6 RAR and RXR receptors
Procedure: RARα, RARβ and RARγ are the major receptors that are likely to mediate the function of ATRA. The mRNA expression of RARs and RXRs in freshly isolated CD4^+CD25^+ and CD4^+CD25^− T cells was determined, as well as in CD4^+CD25^−T cells activated in ATRA. Neonatal human cord blood CD4^+CD25^− naïve T cells were cultured in a T cell activation condition with IL-2 (25 U/ml) and PHA (5 μg/ml) in the presence or absence of ATRA (2 nM) for 6 days. Freshly isolated CD4^÷CD25^+ and CD4^+CD25^− cells are shown for comparison. RT-PCR was performed, and a representative set of results out of 4 independent experiments are shown.

[5] = test system: FoxP3; experiment: Conversion of mouse naive T cells into mucosal tissue homing FoxP3+ T cells with ATRA and cytokines; type: cell-based; conditions: 6-7 days
Procedure: Also provided is a method with which almost all of naïve T cells can be converted into mucosal tissue homing FoxP3^+ T cells by utilizing ATRA and cytokines. Mouse naïve T cells were cultured with ATRA (1-100 nM), IL-2 (10-1000 U/ml) and TGF-β1 (1-100 ng/ml), together with TCR activators (concanavalin A or PHA at 1-10 μg/ml) for 6-7 days. […] This method reproducibly generates 92-99% pure mucosal tissue homing FoxP3^+ T cells.

[6] = test system: granzymes; experiment: Expression of granzyme A, granzyme B and perforin in induced FoxP3+ T cells; type: cell-based, human; conditions: for granzyme A expression in induced FoxP3+ cells: FoxP3+ T cells from cord blood CD4+CD25- T cells
Procedure: Regulatory T cells may use a number of different effector mechanisms to suppress target cells. Granzymes are a class of such effector molecules implicated in regulatory function. […] FoxP3^+ T cells, generated from cord blood CD4^+CD25^− T cells with ATRA, were examined for their expression of granzyme A, granzyme B and perforin. Also included were FoxP3^+T cells, generated with IL-2 (control) or IL-2 (25 U/ml) and TGF-β (2 ng/ml). Expression of granzyme A and B is shown in panel A. Three independent experiments were combined and averages and SEM are shown (panel B).

[7] = test system: FoxP3; experiment: FoxP3 induction in activated neonatal human cord blood CD4+CD25- naive T cells (RT-PCR, flow cytometry); type: cell-based; conditions: for induction of FoxP3+ T cells by single agent: ATRA 2 nM or TGF-β1 2 ng/ml; for optimal concentration for induction of FoxP3: human cord blood CD4+CD25- T cells
Procedure: All-trans-retinoic acid (ATRA), a major vitamin A metabolite, induces FoxP3 expression in T cells. FoxP3 is the master transcription factor for CD4^+CD25^+ regulatory T cells. […] Neonatal human cord blood CD4^+CD25^− naïve T cells were cultured in a T cell activation condition with IL-2 (25 U/ml) and phytohemagglutinin (PHA, 5 μg/m) in the presence or absence of all-trans retinoic acid (ATRA, 2 nM) for 6 days. Naïve CD4^+CD25^− T cells were activated in the absence and presence of ATRA, and examined for expression of FoxP3 mRNA and protein by RT-PCR analysis (FIG. 1A), flow cytometry analysis (FIG. 1B) and dose-dependent induction of FoxP3 by ATRA (FIG. 1C).
As RARα can be induced in T cells in response to ATRA, the function of this receptor in induction of FoxP3 was examined using an RARα antagonist, Ro41-5253. […] FoxP3 protein expression in CD4 T cells, determined by intracellular staining by PE-labeled anti-FoxP3 antibody, is shown as FACS dot plots (FIG. 3A) and graphs (FIG. 3B). Neonatal human cord blood CD4^+CD25^− T cells were cultured in a T cell activation condition with IL-2 (25 U/ml ) and PHA (5 μg/ml) in the presence and absence of indicated agonists or antagonists for 6 days. The concentrations used to obtain the data were 2 nM (ATRA), 1 μM (Ro41-5253), 5 nM (AM-580), and 10 μM (methoprene acid).
TGF-β is a potent inducer of FoxP3 (Chen et al., 2003, J Exp Med). Therefore, the interaction between ATRA and TGF-β in their effects on FoxP3 expression was examined. […] Neonatal human cord blood CD4^+CD25^− T cells were cultured in a T cell activation condition with IL-2 (100 U/ml) and PHA (5 μg/ml) in the presence and absence of indicated agonists or antagonists for 6 days. Ro41-5253 is a RARα antagonist. […] ATRA was used at 2 nM.

[8] = test system: CD4+CD25- T cells; experiment: 3H-thymidine incorporation assay: proliferation and suppression of CD4+CD25- target T cells in co-culture; type: cell-based, human; conditions: treated 6-7 days
Procedure: ATRA-treated T cells are suppressor cells with unique effector molecules. Generally, regulatory T cells are hypo-proliferative and can suppress the proliferation of target T cells (CD4^+CD25^− T cells) in co-culture. It was therefore determined if the ATRA-induced FoxP3^+ cells had these features. […] Freshly isolated CD4^+CD25^− T cells were cultured with ATRA (2 nM), TGF-p31 (2 ng/ml) or ATRA+TGF-β1 in a T cell activation condition (IL-2 +PHA) for 6-7 days. Then, the T cells were co-cultured with CD4^+CD25^− cells for 5 additional days. A 3H-thymidine incorporation assay was performed to assess the proliferation potentials of the cultures.

Compound: COC(C)(C)CCCC(C)C/C=C/C(C)=C/C(=O)O (centres unmarked) [methoprene acid]
- induction of FoxP3 in mouse T cells [1]: able to induce FOXP3 only at very high concentrations
- optimal dose for induction of FOXP3 in mouse T cells ([1]; mouse DO11.10 T cells): ~100 µM
- induction of FoxP3 by pan-RXR agonist [2]: only marginal effects

Compound: vitamin A
- numbers of α4β7+ mucosal tissue homing FoxP3+ T cells in the large and small intestines ([3]; vitamin A-deficient food versus control food with vitamin A): significantly smaller numbers
- numbers of FoxP3+ T cells in lymph nodes (MLN) ([3]; vitamin A-deficient food versus control food): no reduction

Compound: CC1=C(/C=C/C(C)=C/C=C/C(C)=C/C(=O)O)C(C)(C)CCC1 [ATRA, All-trans-retinoic acid]
- RAR and RXR family receptor mRNA expression in response to ATRA [4]: most highly expressed receptor in response to ATRA was RARα
- T cells after culture that were FoxP3+ regulatory T cells expressing the mucosal tissue homing receptor ([5]; ATRA 1-100 nM, IL-2 10-1000 U/ml, TGF-β1 1-100 ng/ml, TCR activators): ~95%
- purity of mucosal tissue homing FoxP3+ T cells reproducibly generated ([5]; ATRA, IL-2, TGF-β1 and TCR activators): 92-99%
- induction of FoxP3 in mouse T cells [1]: induced FoxP3 expression in T cells
- trafficking receptors of mouse FoxP3+ T cells primed in retinoic acid ([1]; mouse DO11.10 T cells): expressed the mucosal tissue homing receptors CCR9 and α4β7
- granzyme A expression in induced FoxP3+ cells [6]: expressed granzyme A
- granzyme B or perforin-expressing cells among induced FoxP3+ cells ([6]; versus TGF-β induced FoxP3+ cells): Consistently more
- effect of ATRA added to the culture with TGF-β on FoxP3+ T cell induction ([7]; ATRA 2 nM + TGF-β1 2 ng/ml, IL-2 100 U/ml + PHA, 6 days): enhanced the effect of TGF-β
- induction of FoxP3+ T cells by single agent ([7]; IL-2 100 U/ml + PHA, 6 days): clear effects
- levels of FoxP3 mRNA expression (RT-PCR) ([7]; ATRA 2 nM with IL-2 25 U/ml and PHA, 6 days, versus IL-2 alone): increased compared to IL-2 alone
- FoxP3+ cells at the protein level (flow cytometry) ([7]; ATRA 2 nM with IL-2 and PHA, 6 days, presence versus absence of ATRA): significantly more
- optimal concentration for induction of FoxP3 ([7]; IL-2 + PHA, 6 days): 2 to 10 nM
- suppressive activity of treated T cells on CD4+CD25- T cells ([8]; co-cultured 5 additional days): levels similar to that of TGF-β1-treated cells
- proliferation potential of treated T cells (3H-thymidine incorporation) ([8]; compared to fresh CD4+CD25- cells and cultured control cells): low proliferation potential

Compound: CCCCCCCOc1cc2c(cc1/C(C)=C/c1ccc(C(=O)O)cc1)C(C)(C)CCS2(=O)=O [Ro41-5253]
- suppression of the FoxP3+ cell induction effect of ATRA ([7]; Ro41-5253 1 μM, ATRA 2 nM, 6 days): completely suppressed
- blocking of ATRA-induced versus TGF-β-induced FoxP3 induction ([7]; Ro41-5253, ATRA 2 nM, TGF-β1 2 ng/ml): blocked only ATRA-induced but not TGF-β-induced FoxP3 induction

Compound: CC1(C)CCC(C)(C)c2cc(C(=O)Nc3ccc(C(=O)O)cc3)ccc21 [AM-580]
- induction of FoxP3 in mouse T cells [1]: good inducer of FoxP3 at low concentrations
- induction of FoxP3 by RARα-specific agonist ([7]; AM-580 5 nM, IL-2 + PHA, 6 days): able to induce FoxP3
- optimal concentration for induction of FoxP3 ([7]; IL-2 + PHA, 6 days): 5 nM

Compound: TGF-β: a potent inducer of FoxP3 (cytokine)
- granzyme A expression in induced FoxP3+ cells [6]: did not express granzyme A at significant levels
- induction of FoxP3+ T cells by single agent ([7]; IL-2 100 U/ml + PHA, 6 days): clear effects

Source: patent US20100113610A1, “METHODS FOR CONTROLLING INFLAMMATORY AND IMMUNOLOGICAL DISEASES” (Purdue Research Foundation, priority 2007, published 2010)
